The record followed here is ChEMBL document CHEMBL1136146, “Pyrimidinone antibiotics--heterocyclic analogues with improved antibacterial spectrum” (Bioorg Med Chem Lett, 2003).

The IC50 is the concentration that gives 50% inhibition. A high value points to lower potency. What is called MIC is the lowest concentration that inhibits growth of the organism.

Where only a bound is given, the exact number is not on record here.

The species entered for one assay is Oryctolagus cuniculus. Briefly: Inhibitory activity tested against eucaryotic translation in Rabbit Reticulocyte Lysate System L 4540. It is filed as functional.
`CN(C(=O)C[C@@H](N)CCCN=C(N)N)C1CN=C(NC(N)=O)NC1=O.Cl.Cl` (stereo partly drawn) returned an IC50 of 170 nM.
`Br.CN(C(=O)C[C@@H](N)CCCCN)C1CN=C(Nc2cnccn2)NC1=O` (stereo partly drawn): the 50% inhibitory concentration (IC50) was under 100 nM.
The same measure, in the same setting: with `CC(=O)O.CN(C(=O)C[C@@H](N)CCCCN)C1CN=C(Nc2ccc3ccccc3n2)NC1=O` (stereo partly drawn) the figure was 50 nM.
The molecule `CC(=O)O.CN(C(=O)C[C@@H](N)CCCN=C(N)N)C1CN=C(Nc2ccc3ccccc3n2)NC1=O` (stereo partly drawn) came in with an IC50 of 100 nM.
`CN(C(=O)C[C@@H](N)CCCCN)C1CN=C(Nc2ncccn2)NC1=O.Cl.Cl` (stereo partly drawn) returned an IC50 of 380 nM.
As for `CC(=O)O.CN(C(=O)C[C@@H](N)CCCN=C(N)N)C1CN=C(Nc2ccccn2)NC1=O` (stereo partly drawn), the midpoint of inhibition, the IC50, lay at 70 nM. Against the preceding molecule, the IC50 is about 5.4-fold lower.
On the same count and under the same terms, with `CN(C(=O)C[C@@H](N)CCCCN)C1CN=C(NC(N)=O)NC1=O.Cl.Cl` (stereo partly drawn) the figure was 2800 nM; with `Br.CN(C(=O)C[C@@H](N)CCCN=C(N)N)C1CN=C(Nc2ncccn2)NC1=O` (stereo partly drawn), 100 nM.

The test system of another assay is Escherichia coli. The assay can be described thus: Inhibitory activity tested against procaryotic translation in Escherichia coli S30 Extract System. The class given is functional, organism-based.
In turn, `CN(C(=O)C[C@@H](N)CCCN=C(N)N)C1CN=C(NC(N)=O)NC1=O.Cl.Cl` (stereo partly drawn) displayed an IC50 of 300 nM.
As to `Br.CN(C(=O)C[C@@H](N)CCCCN)C1CN=C(Nc2cnccn2)NC1=O` (stereo partly drawn), the IC50 was under 100 nM.
For `Br.Cc1csc(NC2=NCC(N(C)C(=O)C[C@@H](N)CCCCN)C(=O)N2)n1` (stereo partly drawn), the IC50 came out at 1000 nM.
On to `CC(=O)O.CN(C(=O)C[C@@H](N)CCCCN)C1CN=C(Nc2ccc3ccccc3n2)NC1=O` (stereo partly drawn), for which the IC50 is 50 nM. This IC50 is about 20-fold lower than that of the molecule before.
The molecule `CC(=O)O.CN(C(=O)C[C@@H](N)CCCCN)C1CN=C(Nc2cccnc2)NC1=O` (stereo partly drawn) returned an IC50 of over 64000 nM.
For the molecule `CC(=O)O.CN(C(=O)C[C@@H](N)CCCCN)C1CN=C(Nc2nc3ccccc3[nH]2)NC1=O` (stereo partly drawn), it took 1000 nM to reach half-maximal inhibition (IC50).
Take `CC(=O)O.CN(C(=O)C[C@@H](N)CCCN=C(N)N)C1CN=C(Nc2ccc3ccccc3n2)NC1=O` (stereo partly drawn): inhibition was half-maximal at 100 nM (IC50).
On the same count and under the same terms, to `CN(C(=O)C[C@@H](N)CCCCN)C1CN=C(Nc2ncccn2)NC1=O.Cl.Cl` (stereo partly drawn) belongs 1000 nM; to `Br.CN(C(=O)C[C@@H](N)CCCCN)C1CN=C(Nc2nc3ccccc3s2)NC1=O` (stereo partly drawn), 3200 nM; to `CN(C(=O)C[C@@H](N)c1cc(CN)on1)C1CN=C(NC(N)=O)NC1=O.Cl.Cl` (stereo partly drawn), over 64000 nM.
Still for that read-out and setting: with `CN(C(=O)C[C@@H](N)c1csc(CCN)n1)C1CN=C(NC(N)=O)NC1=O.O=S(=O)(O)C(F)(F)F` (stereo partly drawn) the figure was 16000 nM.
With `CN(C(=O)C[C@@H](N)CCCCN)C1CN=C(NC(N)=O)NC1=O.Cl.Cl` (stereo partly drawn), the IC50 is 500 nM. This IC50 is about 32-fold lower than that of the molecule before.
The same measure, in the same setting: with `Br.CN(C(=O)C[C@@H](N)CCCN=C(N)N)C1CN=C(Nc2ncccn2)NC1=O` (stereo partly drawn) the figure was under 50 nM; with `CN(C(=O)C[C@@H](N)c1csc(CN)n1)C1CN=C(NC(N)=O)NC1=O.O=S(=O)(O)C(F)(F)F` (stereo partly drawn), 32000 nM.

Test system in the next assay: not listed separately
The assay can be described thus: Antibacterial activity against […] pneumoniae 1707/4 was determined. The class given is functional.
For `CN(C(=O)C[C@@H](N)CCCN=C(N)N)C1CN=C(NC(N)=O)NC1=O.Cl.Cl` (stereo partly drawn), inhibition of growth (MIC) required 32 µg/mL.
`CC(=O)O.CN(C(=O)C[C@@H](N)CCCN=C(N)N)C1CN=C(Nc2ccc3ccccc3n2)NC1=O` (stereo partly drawn) yielded an MIC of 8 µg/mL.
The same measure, in the same setting: with `CC(=O)O.CN(C(=O)C[C@@H](N)CCCN=C(N)N)C1CN=C(Nc2ccccn2)NC1=O` (stereo partly drawn) the figure was 2 µg/mL.

The test system of a further assay is Staphylococcus epidermidis. Briefly: Antibacterial activity against Staphylococcus epidermidis 18570 was determined. It is filed as functional.
The molecule `CN(C(=O)C[C@@H](N)CCCN=C(N)N)C1CN=C(NC(N)=O)NC1=O.Cl.Cl` (stereo partly drawn) yielded an MIC of 0.25 µg/mL.
On the same count and under the same terms, with `CC(=O)O.CN(C(=O)C[C@@H](N)CCCN=C(N)N)C1CN=C(Nc2ccc3ccccc3n2)NC1=O` (stereo partly drawn) the figure was 0.25 µg/mL.
The same measure, in the same setting: to `CC(=O)O.CN(C(=O)C[C@@H](N)CCCN=C(N)N)C1CN=C(Nc2ccccn2)NC1=O` (stereo partly drawn) belongs 0.25 µg/mL.

Another assay relates to Enterococcus faecium. Briefly: Antibacterial activity against Enterococcus faecium L 4001 was determined. It is filed as functional.
`CN(C(=O)C[C@@H](N)CCCN=C(N)N)C1CN=C(NC(N)=O)NC1=O.Cl.Cl` (stereo partly drawn) displayed a minimal inhibitory concentration (MIC) of 2 µg/mL.
The same measure, in the same setting: with `CC(=O)O.CN(C(=O)C[C@@H](N)CCCN=C(N)N)C1CN=C(Nc2ccc3ccccc3n2)NC1=O` (stereo partly drawn) the figure was 8 µg/mL; with `CC(=O)O.CN(C(=O)C[C@@H](N)CCCN=C(N)N)C1CN=C(Nc2ccccn2)NC1=O` (stereo partly drawn), 2 µg/mL.

For a further assay, the system named is Staphylococcus aureus. Briefly: Antibacterial activity against Staphylococcus aureus 133 was determined. The class given is functional.
The molecule `CN(C(=O)C[C@@H](N)CCCN=C(N)N)C1CN=C(NC(N)=O)NC1=O.Cl.Cl` (stereo partly drawn) came in with an ED100 of 0.25 mg/kg and an MIC of 0.25 µg/mL.
`CC(=O)O.CN(C(=O)C[C@@H](N)CCCN=C(N)N)C1CN=C(Nc2ccc3ccccc3n2)NC1=O` (stereo partly drawn): the MIC came out at 0.5 µg/mL.
`CC(=O)O.CN(C(=O)C[C@@H](N)CCCN=C(N)N)C1CN=C(Nc2ccccn2)NC1=O` (stereo partly drawn) had an ED100 of 1 mg/kg and an MIC of 0.5 µg/mL.

For another assay, the system named is Staphylococcus aureus. Briefly: In vitro minimum inhibitory concentration against Staphylococcus aureus 133. It is filed as functional.
As to `CN(C(=O)C[C@@H](N)CCCN=C(N)N)C1CN=C(NC(N)=O)NC1=O.Cl.Cl` (stereo partly drawn), the minimal inhibitory concentration (MIC) was determined as 0.1 µg/mL.
Same read-out and setting: to `CN(C(=O)C[C@@H](N)CSCCN)C1CN=C(NC(N)=O)NC1=O.Cl.Cl` (stereo partly drawn) belongs 100 µg/mL; to `Br.CN(C(=O)C[C@@H](N)CCCCN)C1CN=C(Nc2cnccn2)NC1=O` (stereo partly drawn), under 0.1 µg/mL.
In turn, `CC(=O)O.CN(C(=O)C[C@@H](N)CCCCN)C1CN=C(Nc2ccccn2)NC1=O` (stereo partly drawn) registered an MIC of 0.2 µg/mL.
On the same count and under the same terms, with `Br.Cc1csc(NC2=NCC(N(C)C(=O)C[C@@H](N)CCCCN)C(=O)N2)n1` (stereo partly drawn) the figure was 50 µg/mL; with `CC(=O)O.CN(C(=O)C[C@@H](N)CCCCN)C1CN=C(Nc2ccc3ccccc3n2)NC1=O` (stereo partly drawn), 6.3 µg/mL.
`CC(=O)O.CN(C(=O)C[C@@H](N)CCCCN)C1CN=C(Nc2cccnc2)NC1=O` (stereo partly drawn) registered an MIC of 50 µg/mL.
The same measure, in the same setting: with `CC(=O)O.CN(C(=O)C[C@@H](N)CCCCN)C1CN=C(Nc2nc3ccccc3[nH]2)NC1=O` (stereo partly drawn) the figure was 50 µg/mL; with `CC(=O)O.CN(C(=O)C[C@@H](N)CCCN=C(N)N)C1CN=C(Nc2ccc3ccccc3n2)NC1=O` (stereo partly drawn), 0.1 µg/mL; with `CN(C(=O)C[C@@H](N)CCCCN)C1CN=C(Nc2ncccn2)NC1=O.Cl.Cl` (stereo partly drawn), 1.6 µg/mL.
For `CC(=O)O.CN(C(=O)C[C@@H](N)CCCCN)C1CN=C(Nc2ccccc2)NC1=O` (stereo partly drawn), the MIC was 100 µg/mL.
Still for that read-out and setting: to `Br.CN(C(=O)C[C@@H](N)CCCCN)C1CN=C(Nc2nc3ccccc3s2)NC1=O` (stereo partly drawn) belongs 25 µg/mL; to `CC(=O)O.CN(C(=O)C[C@@H](N)CCCN=C(N)N)C1CN=C(Nc2ccccn2)NC1=O` (stereo partly drawn), under 0.05 µg/mL; to `CN(C(=O)C[C@@H](N)CS(=O)(=O)CCN)C1CN=C(NC(N)=O)NC1=O.Cl.Cl` (stereo partly drawn), over 100 µg/mL.
The same measure, in the same setting: to `CN(C(=O)C[C@@H](N)c1cc(CN)on1)C1CN=C(NC(N)=O)NC1=O.Cl.Cl` (stereo partly drawn) belongs over 100 µg/mL; to `CN(C(=O)C[C@@H](N)CCCCN)C1CN=C(NC2=NCCCN2)NC1=O.Cl.Cl` (stereo partly drawn), over 100 µg/mL.
On the same count and under the same terms, with `CC(=O)O.CN(C1=NCC(N(C)C(=O)C[C@@H](N)CCCCN)C(=O)N1)c1ccccn1` (stereo partly drawn) the figure was over 100 µg/mL; with `CN(C(=O)C[C@@H](N)c1csc(CCN)n1)C1CN=C(NC(N)=O)NC1=O.O=S(=O)(O)C(F)(F)F` (stereo partly drawn), 100 µg/mL.
In the case of `CN(C(=O)C[C@@H](N)CCCCN)C1CN=C(NC(N)=O)NC1=O.Cl.Cl` (stereo partly drawn), the MIC was 0.05 µg/mL.
Same read-out and setting: to `Br.CN(C(=O)C[C@@H](N)CCCN=C(N)N)C1CN=C(Nc2ncccn2)NC1=O` (stereo partly drawn) belongs 0.4 µg/mL; to `CN(C(=O)C[C@@H](N)c1csc(CN)n1)C1CN=C(NC(N)=O)NC1=O.O=S(=O)(O)C(F)(F)F` (stereo partly drawn), 50 µg/mL.

Test system in another assay: not listed separately
The assay can be described thus: In vitro selectivity index was measured as IC50 eucaryotic translation/procaryotic translation. It is filed as functional.
Take `CN(C(=O)C[C@@H](N)CCCN=C(N)N)C1CN=C(NC(N)=O)NC1=O.Cl.Cl` (stereo partly drawn): the Selectivity was found to be 0.57.
Still for that read-out and setting: with `CC(=O)O.CN(C(=O)C[C@@H](N)CCCCN)C1CN=C(Nc2ccc3ccccc3n2)NC1=O` (stereo partly drawn) the figure was 1; with `CC(=O)O.CN(C(=O)C[C@@H](N)CCCN=C(N)N)C1CN=C(Nc2ccc3ccccc3n2)NC1=O` (stereo partly drawn), 1.
Same read-out and setting: with `CN(C(=O)C[C@@H](N)CCCCN)C1CN=C(Nc2ncccn2)NC1=O.Cl.Cl` (stereo partly drawn) the figure was 0.38; with `CN(C(=O)C[C@@H](N)CCCCN)C1CN=C(NC(N)=O)NC1=O.Cl.Cl` (stereo partly drawn), 5.3; with `Br.CN(C(=O)C[C@@H](N)CCCN=C(N)N)C1CN=C(Nc2ncccn2)NC1=O` (stereo partly drawn), over 2.

For a further assay, the system named is Enterococcus faecium. Briefly: Antibacterial activity against Enterococcus faecium 18531 was determined. The class given is functional.
Consider `CN(C(=O)C[C@@H](N)CCCN=C(N)N)C1CN=C(NC(N)=O)NC1=O.Cl.Cl` (stereo partly drawn), for which the MIC is over 16 µg/mL.
Still for that read-out and setting: to `CC(=O)O.CN(C(=O)C[C@@H](N)CCCN=C(N)N)C1CN=C(Nc2ccc3ccccc3n2)NC1=O` (stereo partly drawn) belongs over 16 µg/mL; to `CC(=O)O.CN(C(=O)C[C@@H](N)CCCN=C(N)N)C1CN=C(Nc2ccccn2)NC1=O` (stereo partly drawn), over 64 µg/mL.

Test system in a further assay: not listed separately
The assay can be described thus: Antibacterial activity against […] pneumoniae G9a was determined. It is filed as functional.
`CN(C(=O)C[C@@H](N)CCCN=C(N)N)C1CN=C(NC(N)=O)NC1=O.Cl.Cl` (stereo partly drawn) came in with an MIC of 16 µg/mL.
On the same count and under the same terms, to `CC(=O)O.CN(C(=O)C[C@@H](N)CCCN=C(N)N)C1CN=C(Nc2ccccn2)NC1=O` (stereo partly drawn) belongs 2 µg/mL.
